Values after ≈ are worked out from the molar mass of the structure shown. Some results are limits rather than exact numbers.

This is an account of results in ChEMBL document CHEMBL1641455, “Discovery of novel ureas and thioureas of 3-decladinosyl-3-hydroxy 15-membered azalides active against efflux-mediated resistant Streptococcus pneumoniae” (2011).

Assay type in all cases: functional
In one assay the test system is Staphylococcus aureus. Put plainly: Antimicrobial activity against Staphylococcus aureus ATCC 29213 after 16 to 22 hrs by broth microdilution method. On the technique in general: Dilution methods test growth across graded concentrations, often in twofold steps.
Assay [1] concerns Streptococcus pneumoniae. As to the kind of experiment: Antimicrobial activity against erythromycin-susceptible Streptococcus pneumoniae after 16 to 22 hrs by broth microdilution method.
Assay [2] relates to Streptococcus pneumoniae. As to the kind of experiment: Antimicrobial activity against macrolide-resistant erythromycin-Streptococcus pneumoniae after 16 to 22 hrs by broth microdilution method.
The test system of assay [3] is Streptococcus pyogenes. As to the kind of experiment: Antimicrobial activity against erythromycin-susceptible Streptococcus pyogenes after 16 to 22 hrs by broth microdilution method.
For assay [4], the system named is Streptococcus pyogenes. Put plainly: Antimicrobial activity against macrolide-resistant erythromycin-Streptococcus pyogenes after 16 to 22 hrs by broth microdilution method.
The test system of the next assay is Moraxella catarrhalis. As to the kind of experiment: Antimicrobial activity against Moraxella catarrhalis ATCC 23246 after 16 to 22 hrs by broth microdilution method.
The next assay has as its system Haemophilus influenzae. As to the kind of experiment: Antimicrobial activity against Haemophilus influenzae ATCC 49247 after 16 to 22 hrs by broth microdilution method.
In another assay the test system is Enterococcus faecalis. As to the kind of experiment: Antimicrobial activity against Enterococcus faecalis ATCC 29212 after 16 to 22 hrs by broth microdilution method.
For the next assay, the system named is Escherichia coli. Put plainly: Antimicrobial activity against Escherichia coli ATCC 25922 after 16 to 22 hrs by broth microdilution method.
Where [5] appears, read: Staphylococcus aureus, ATCC 29213, read-out: MIC.
The mark [6] stands for this setting: Streptococcus pneumoniae, read-out: MIC.
[7] abbreviates: Streptococcus pyogenes, read-out: MIC.
[8] abbreviates: Haemophilus influenzae, ATCC 49247, read-out: MIC.
The mark [9] stands for this setting: Escherichia coli, ATCC 25922, read-out: MIC.

On to `CC[C@H]1OC(=O)[C@H](C)[C@@H](O)[C@H](C)[C@@H](O[C@@H]2O[C@H](C)C[C@H](N(C)C)[C@H]2O)[C@](C)(O)C[C@@H](C)CN(CCCNC(=O)Nc2cccc3ccccc23)[C@H](C)[C@@H](O)[C@]1(C)O`, for which the MIC is > 64 µg/mL with Staphylococcus aureus (setting [5]); 1 µg/mL (≈ 1.25 µM) in the assay on Streptococcus pneumoniae [1] (setting [6]); 8 µg/mL (≈ 9.96 µM) in the assay with Streptococcus pneumoniae [2] (setting [6]); 2 µg/mL (≈ 2.49 µM) in the assay on Streptococcus pyogenes [3] (setting [7]); 16 µg/mL (≈ 19.9 µM) with Streptococcus pyogenes [4] (setting [7]); 2 µg/mL (≈ 2.49 µM) with Moraxella catarrhalis. Further, the MIC in the assay on Haemophilus influenzae (setting [8]) stood at 2 µg/mL (≈ 2.49 µM); against Enterococcus faecalis, 32 µg/mL (≈ 39.8 µM); in the assay with Escherichia coli (setting [9]), 8 µg/mL (≈ 9.96 µM).

`CC[C@H]1OC(=O)[C@H](C)[C@@H](O)[C@H](C)[C@@H](O[C@@H]2O[C@H](C)C[C@H](N(C)C)[C@H]2O)[C@](C)(O)C[C@@H](C)CN(CCCNC(=S)Nc2cccc3ccccc23)[C@H](C)[C@@H](O)[C@]1(C)O`: the MIC was > 64 µg/mL in the assay with Staphylococcus aureus (setting [5]); 1 µg/mL (≈ 1.22 µM) in the assay on Streptococcus pneumoniae [1] (setting [6]); 2 µg/mL (≈ 2.44 µM) in the assay on Streptococcus pneumoniae [2] (setting [6]); 8 µg/mL (≈ 9.77 µM) in the assay on Streptococcus pyogenes [3] (setting [7]); 64 µg/mL (≈ 78.1 µM) in the assay on Streptococcus pyogenes [4] (setting [7]); 0.5 µg/mL (≈ 0.61 µM) against Moraxella catarrhalis. Moreover, the MIC in the assay on Haemophilus influenzae (setting [8]) is 4 µg/mL (≈ 4.88 µM); against Enterococcus faecalis, 32 µg/mL (≈ 39.1 µM); in the assay on Escherichia coli (setting [9]), 16 µg/mL (≈ 19.5 µM).

With `CC[C@H]1OC(=O)[C@H](C)[C@@H](O)[C@H](C)[C@@H](O[C@@H]2O[C@H](C)C[C@H](N(C)C)[C@H]2O)[C@](C)(O)C[C@@H](C)CN(CCCNC(=S)NCCc2ccccc2)[C@H](C)[C@@H](O)[C@]1(C)O`, the MIC with Staphylococcus aureus (setting [5]) is > 64 µg/mL; in the assay on Streptococcus pneumoniae [1] (setting [6]) it was 4 µg/mL (≈ 5.02 µM); with Streptococcus pneumoniae [2] (setting [6]), 16 µg/mL (≈ 20.1 µM); with Streptococcus pyogenes [3] (setting [7]), 32 µg/mL (≈ 40.1 µM); in the assay on Streptococcus pyogenes [4] (setting [7]), 64 µg/mL (≈ 80.3 µM); in the assay with Moraxella catarrhalis it was 4 µg/mL (≈ 5.02 µM). Moreover, the MIC in the assay with Haemophilus influenzae (setting [8]) turned out to be 16 µg/mL (≈ 20.1 µM); in the assay with Enterococcus faecalis, 64 µg/mL (≈ 80.3 µM); with Escherichia coli (setting [9]), 64 µg/mL (≈ 80.3 µM).

On to `CC[C@H]1OC(=O)[C@H](C)[C@@H](O)[C@H](C)[C@@H](O[C@@H]2O[C@H](C)C[C@H](N(C)C)[C@H]2O)[C@](C)(O)C[C@@H](C)CN(CCCN(CCC#N)C(=O)Nc2cccc3ccccc23)[C@H](C)[C@@H](O)[C@]1(C)O`, for which the MIC with Staphylococcus aureus (setting [5]) is > 64 µg/mL; with Streptococcus pneumoniae [1] (setting [6]), 16 µg/mL (≈ 18.7 µM); with Streptococcus pneumoniae [2] (setting [6]), 64 µg/mL (≈ 74.8 µM); in the assay with Streptococcus pyogenes [3] (setting [7]) it was 16 µg/mL (≈ 18.7 µM); in the assay on Streptococcus pyogenes [4] (setting [7]), 64 µg/mL (≈ 74.8 µM); in the assay on Moraxella catarrhalis it was 8 µg/mL (≈ 9.34 µM). Further, the results for the MIC in the assay on Haemophilus influenzae (setting [8]), in the assay on Enterococcus faecalis and in the assay with Escherichia coli (setting [9]) were 32 µg/mL (≈ 37.4 µM), > 64 µg/mL and 64 µg/mL (≈ 74.8 µM), respectively.

On to `CC[C@H]1OC(=O)[C@H](C)[C@@H](O)[C@H](C)[C@@H](O[C@@H]2O[C@H](C)C[C@H](N(C)C)[C@H]2O)[C@](C)(O)C[C@@H](C)CN(CCCN(CCC#N)C(=O)Nc2ccc3ccccc3c2)[C@H](C)[C@@H](O)[C@]1(C)O`, for which the MIC in the assay with Staphylococcus aureus (setting [5]) was > 64 µg/mL; in the assay on Streptococcus pneumoniae [2] (setting [6]), 4 µg/mL (≈ 4.67 µM); in the assay with Streptococcus pyogenes [3] (setting [7]), 8 µg/mL (≈ 9.34 µM); in the assay on Streptococcus pyogenes [4] (setting [7]), 16 µg/mL (≈ 18.7 µM); against Moraxella catarrhalis, 2 µg/mL (≈ 2.34 µM); in the assay with Haemophilus influenzae (setting [8]), 2 µg/mL (≈ 2.34 µM). The MIC came to 32 µg/mL (≈ 37.4 µM) against Enterococcus faecalis and 16 µg/mL (≈ 18.7 µM) in the assay on Escherichia coli (setting [9]).

`CC[C@H]1OC(=O)[C@H](C)[C@@H](O)[C@H](C)[C@@H](O[C@@H]2O[C@H](C)C[C@H](N(C)C)[C@H]2O)[C@](C)(O)C[C@@H](C)CN(CCCN(CCC#N)C(=O)Nc2ccc(Cl)cc2Cl)[C@H](C)[C@@H](O)[C@]1(C)O`: the MIC in the assay on Staphylococcus aureus (setting [5]) was > 64 µg/mL; in the assay on Streptococcus pneumoniae [2] (setting [6]), 8 µg/mL (≈ 9.14 µM); with Streptococcus pyogenes [3] (setting [7]) it was > 64 µg/mL; in the assay on Moraxella catarrhalis, 8 µg/mL (≈ 9.14 µM); in the assay on Haemophilus influenzae (setting [8]), 16 µg/mL (≈ 18.3 µM); against Enterococcus faecalis, > 64 µg/mL. The MIC in the assay with Escherichia coli (setting [9]) is > 64 µg/mL.

With `CC[C@H]1OC(=O)[C@H](C)[C@@H](O)[C@H](C)[C@@H](O[C@@H]2O[C@H](C)C[C@H](N(C)C)[C@H]2O)[C@](C)(O)C[C@@H](C)CN(CCCN(CCC#N)C(=S)NCc2ccccc2)[C@H](C)[C@@H](O)[C@]1(C)O`, the MIC is > 64 µg/mL in the assay with Staphylococcus aureus (setting [5]); 16 µg/mL (≈ 19.1 µM) in the assay on Streptococcus pneumoniae [2] (setting [6]); > 64 µg/mL in the assay with Streptococcus pyogenes [3] (setting [7]); 2 µg/mL (≈ 2.39 µM) in the assay on Moraxella catarrhalis; 8 µg/mL (≈ 9.57 µM) in the assay on Haemophilus influenzae (setting [8]); > 64 µg/mL in the assay with Enterococcus faecalis. Also, the MIC in the assay on Escherichia coli (setting [9]) is > 64 µg/mL.

For the molecule `CC[C@H]1OC(=O)[C@H](C)[C@@H](O)[C@H](C)[C@@H](O[C@@H]2O[C@H](C)C[C@H](N(C)C)[C@H]2O)[C@](C)(O)C[C@@H](C)CN(CCCN(CCC#N)C(=S)NCCc2ccccc2)[C@H](C)[C@@H](O)[C@]1(C)O`, the MIC in the assay with Staphylococcus aureus (setting [5]) was > 64 µg/mL; in the assay with Streptococcus pneumoniae [2] (setting [6]), 16 µg/mL (≈ 18.8 µM); with Streptococcus pyogenes [3] (setting [7]) it was > 64 µg/mL; in the assay with Moraxella catarrhalis, 8 µg/mL (≈ 9.41 µM); with Haemophilus influenzae (setting [8]) it was 32 µg/mL (≈ 37.6 µM); in the assay with Enterococcus faecalis it was > 64 µg/mL. Further, the MIC in the assay on Escherichia coli (setting [9]) was > 64 µg/mL.

As for `CC[C@H]1OC(=O)[C@H](C)[C@@H](O)[C@H](C)[C@@H](O[C@@H]2O[C@H](C)C[C@H](N(C)C)[C@H]2O)[C@](C)(O)C[C@@H](C)CN(CCCN(CCC#N)C(=S)NCCCc2ccccc2)[C@H](C)[C@@H](O)[C@]1(C)O`, the MIC in the assay on Staphylococcus aureus (setting [5]) was > 64 µg/mL; with Streptococcus pneumoniae [2] (setting [6]) it was 16 µg/mL (≈ 18.5 µM); in the assay with Streptococcus pyogenes [3] (setting [7]), 32 µg/mL (≈ 37 µM); in the assay with Streptococcus pyogenes [4] (setting [7]), 64 µg/mL (≈ 74.1 µM); in the assay on Moraxella catarrhalis it was 8 µg/mL (≈ 9.26 µM); with Haemophilus influenzae (setting [8]), 8 µg/mL (≈ 9.26 µM). Also, the MIC with Enterococcus faecalis and in the assay on Escherichia coli (setting [9]) was > 64 µg/mL each time.

On to `CC[C@H]1OC(=O)[C@H](C)[C@@H](O)[C@H](C)[C@@H](O[C@@H]2O[C@H](C)C[C@H](N(C)C)[C@H]2O)[C@](C)(O)C[C@@H](C)CN(CCCNC(=O)NC(C)c2cccc3ccccc23)[C@H](C)[C@@H](O)[C@]1(C)O` (mixture of isomers), for which the MIC is 16 µg/mL in the assay with Staphylococcus aureus (setting [5]); < 0.125 µg/mL with Streptococcus pneumoniae [1] (setting [6]); 16 µg/mL in the assay on Streptococcus pneumoniae [2] (setting [6]); < 0.125 µg/mL in the assay with Streptococcus pyogenes [3] (setting [7]); 16 µg/mL in the assay with Streptococcus pyogenes [4] (setting [7]); 4 µg/mL with Moraxella catarrhalis. Besides, the MIC is 4 µg/mL in the assay with Haemophilus influenzae (setting [8]), 8 µg/mL in the assay with Enterococcus faecalis and 16 µg/mL with Escherichia coli (setting [9]).

With `CC[C@H]1OC(=O)[C@H](C)[C@@H](O)[C@H](C)[C@@H](O[C@@H]2O[C@H](C)C[C@H](N(C)C)[C@H]2O)[C@](C)(O)C[C@@H](C)CN(CCCN(CCC#N)C(=O)NC(C)c2cccc3ccccc23)[C@H](C)[C@@H](O)[C@]1(C)O` (mixture of isomers), the MIC in the assay on Staphylococcus aureus (setting [5]) was > 64 µg/mL; with Streptococcus pneumoniae [1] (setting [6]), 4 µg/mL; with Streptococcus pneumoniae [2] (setting [6]) it was 8 µg/mL; in the assay on Streptococcus pyogenes [3] (setting [7]), 4 µg/mL; with Streptococcus pyogenes [4] (setting [7]) it was > 64 µg/mL; in the assay with Moraxella catarrhalis, 4 µg/mL. Moreover, the MIC in the assay on Haemophilus influenzae (setting [8]) was 16 µg/mL; in the assay on Enterococcus faecalis, 64 µg/mL; in the assay on Escherichia coli (setting [9]), > 64 µg/mL.

With `CC[C@H]1OC(=O)[C@H](C)[C@@H](O[C@H]2C[C@@](C)(OC)[C@@H](O)[C@H](C)O2)[C@H](C)[C@@H](O[C@@H]2O[C@H](C)C[C@H](N(C)C)[C@H]2O)[C@](C)(O)C[C@@H](C)CN(C)[C@H](C)[C@@H](O)[C@]1(C)O` (stereo in doubt; 1) [AZITHROMYCIN], the MIC against Staphylococcus aureus was 0.5 µg/mL (≈ 0.668 µM); in the assay on Streptococcus pneumoniae [2] it was 8 µg/mL (≈ 10.7 µM); with Streptococcus pyogenes [4], 4 µg/mL (≈ 5.34 µM); in the assay on Moraxella catarrhalis, < 0.125 µg/mL; with Haemophilus influenzae, 1 µg/mL (≈ 1.34 µM); against Enterococcus faecalis, 8 µg/mL (≈ 10.7 µM). This molecule registered an MIC in the assay with Escherichia coli of 2 µg/mL (≈ 2.67 µM).

`CC[C@H]1OC(=O)[C@H](C)[C@@H](O[C@H]2C[C@@](C)(OC)[C@@H](O)[C@H](C)O2)[C@H](C)[C@@H](O[C@@H]2O[C@H](C)C[C@H](N(C)C)[C@H]2O)[C@](C)(O)C[C@@H](C)CN(C)[C@H](C)[C@@H](O)[C@]1(C)O` (stereo in doubt; 2) [AZITHROMYCIN]: the MIC against Staphylococcus aureus was >64 µg/mL; against Streptococcus pneumoniae [1], >64 µg/mL; against Streptococcus pneumoniae [2], >64 µg/mL; with Streptococcus pyogenes [3], >64 µg/mL; against Streptococcus pyogenes [4] it was >64 µg/mL; with Haemophilus influenzae it was 16 µg/mL (≈ 21.4 µM). The molecule further gave an MIC against Escherichia coli of 16 µg/mL (≈ 21.4 µM).
